Assay results taken from US20060241130A1, “Anti-inflammatory compositions and uses thereof” (priority 2003, published 2006).

How the values were obtained:
[1] = Control: effect of hydrogen peroxide on cromolyn sodium mesophases; assay type: physicochemical; conditions: hydrogen peroxide (30 percent), 8 hours at room temperature
Description: (§1) Analysis of the effect of ozone on cromolyn sodium mesophases: Six solutions of cromolyn sodium in PBS (7-12 percent) were placed in narrow (5 mm) NMR tubes and ozone (10 percent in oxygen) was bubbled for 5 minutes through the solutions using a flexible Teflon tube. […] Control experiments were carried out with hydrogen peroxide (30 percent) and sodium hypochlorite.

[2] = Control: effect of sodium hypochlorite on cromolyn sodium mesophases; assay type: physicochemical; conditions: any concentration of cromolyn sodium, 8 hours at room temperature
Description: as §1

[3] = Cromolyn sodium lyotropic mesophase formation (polarizing microscope); assay type: physicochemical; conditions: phosphate buffered saline pH 7.4, 5 to 12 percent (w/w) tested
Description: Preparation of cromolyn sodium lyotropic mesophases: Solutions of cromolyn sodium (white powder, Vitamed Inc., Israel) were dissolved in phosphate buffered saline [50 mM phosphate, 100 mM NaCl (pH 7.4)] at eight different concentrations between 5 and 12 percent (w/w).

[4] = Effect of ozone on cromolyn sodium mesophases; assay type: physicochemical; conditions: 7-12 percent in PBS, ozone (10 percent in oxygen) bubbled for 5 minutes
Description: as §1

[5] = test system: ovalbumin sensitized Brown Norway rats; test: Asthma treatment model II: blinded histopathological scoring of lung sections (H&E); assay type: in vivo, rat
Description: (§2) Asthma treatment model II: Asthma was induced on day 0 in three experimental groups of 10 animals each, by sensitization with ovalbumin (OVA) and aluminum hydroxide, as previously described (Du et al., 1992. Am. Rev. Resp. Dis. 146:1037-1041). Sensitization to the model antigen ovalbumin (OVA) was carried out by subcutaneous injection of 1 mg OVA (Sigma, St. Louis, Mo.) and 200 mg of aluminum hydroxide (AlumInject; Pierce Chemical, Rockford, Ill.) in 0.9 percent (w/w) saline in a total volume of 1 ml, and intraperitoneal injection of 1 ml saline containing 6 billion heat killed Bordetella pertussis cells (Pasteur Marieux, France). A fourth group of 10 animals was not sensitized and was used as the naive control group. The three groups of sensitized rats as well as the group of naive animals were challenged every other day from day 14 until day 21 with repeated 10 minute long inhalations of OVA using an ultrasonic nebulizer inhaler (LS 230 Systam Villeneuve Sur Lot, France). Throughout the experiments, the rats were kept unrestrained in a 20 liters box.
In model II, all rats were anaesthetized on day 21 with pentothal and sacrificed by bleeding from the abdominal aorta. Lungs were removed and inflated with 4 percent buffered formaldehyde overlayed with 20 cm water. The lungs were sliced longitudinally and embedded in paraffin. Histologic sections 5 microns thick were cut and stained with hematoxylin and eosin. The morphological changes were evaluated by light microscopy by a pathologist who was blinded to the treatment groups. The intensity of the peribronchiolar and perivascular cellular infiltration was assessed semi-quantitatively on a 0-3 scale as follows: 0=no or practically no inflammatory cells; I=a narrow rim of inflammatory cells surrounding most of the bronchioles/blood vessels, best visualized under high power; 2=a rim of inflammatory cells 3-4 cells thick, surrounding most of the bronchioles/blood vessels; 3=a prominent rim of inflammatory cells, 5 or more cells thick, surrounding most of the bronchioles/blood vessels. Bronchiolar constriction was also assessed on a semi-quantitative scale ranging over 0-3 grades (0=none; 1=mild; 2=moderate; 3=marked). The histologic sections included bronchioles (defined as airways lined by mucosa and lacking cartilage) and distal airways (alveolar ducts and sacs). The features examined included peribronchiolar and perivascular inflammation, morphological evidence of bronchoconstriction (papillary infolding of the bronchiolar mucosa) and granulomatous response in the pulmonary parenchyma.

[6] = test system: ovalbumin sensitized Brown Norway rats; test: Asthma treatment model II: Penh (barometric plethysmography) after repeated OVA challenge; assay type: in vivo, rat; conditions: 125 ppm in breathing atmosphere day 14 to day 21, measured day 21, 5 minutes after allergen challenge, mean ± standard error
Description: as §2

[7] = test system: asthmatic human patients; test: Double-blind cross-over study in asthmatic children, adenosine bronchial provocation test; assay type: in vivo; conditions: about 80 ppm nightly for two weeks
Description: Patients: Eleven patients were recruited from children to the pediatric pulmonary clinic, Rambam Medical Center, Haifa. Inclusion criteria: age: 6-11 years; diagnosis of asthma by ATS criteria; ability to perform spirometry consistently; asthma severity classified as “mild persistent” as per the GINA workshop report; no anti-inflammatory medication, including antihistamines, taken for at least 2 weeks prior to enrollment. Exclusion criteria: presence of other chronic conditions; emergency room visit in the past 3 months; respiratory infection in the past month; steroids or other anti-inflammatory medication taken within 2 weeks prior to treatment; and bronchodilators, theophylline preparations or monteleukast taken in the 24 hours prior to spirometry.
Study design: A double-blind cross-over study format was used to evaluate the effect of monoterpenes on asthma. The study included four phases, each lasting two weeks. Following enrollment, baseline spirometry was performed and inclusion/exclusion was verified. The patients then filled in a diary card for two weeks. […]
Adenosine bronchial provocation test (BPT): Bronchial provocation tests were performed by inhalation of nebulized adenosine 5′-monophosphate (adenosine; Sigma chemical company, St. Louis, Mo., USA) solutions in doubling doses. […] The best of three efforts were recorded. […]

[8] = 0-3 scale, 125 ppm inhalation day 14-21, OVA sensitized, OVA challenged rats
[9] = H&E, representative treated rat

## O=C(O)c1cc(=O)c2c(OCC(O)COc3cccc4oc(C(=O)O)cc(=O)c34)cccc2o1 [cromolyn sodium]
[1]
  birefringence after hydrogen peroxide, 7 and 8 percent cromolyn sodium: loss of birefringence was observed
  birefringence after hydrogen peroxide, more concentrated cromolyn sodium: No effect
[2]
  birefringence after hypochlorite: No effect
[3]
  minimal concentration that exhibited birefringence: 6%
[4]
  birefringence after ozone: Loss of birefringence in all tubes
  conversion to oxidized products (1H-NMR): complete conversion

## CC12CCC(CC1)C(C)(C)O2 [eucalyptol]
[5]; 0-3 grades, 125 ppm inhalation day 14-21, OVA sensitized, OVA challenged rats
  morphological evidence of bronchoconstriction score: 2.3±0.21
[5]; [8]
  peribronchial inflammatory cell infiltration score: 2.2±0.29
  perivascular inflammatory cell infiltration score: 2.5±0.27
[5]; 125 ppm inhalation day 14-21, OVA sensitized, OVA challenged rats
  granulomas (granulomatous response) score: 1.8±0.42
[5]; [9]
  morphologic bronchoconstriction in representative lung section (FIG. 12): shows morphologic evidence of bronchoconstriction
  peribronchiolar inflammation in representative lung section (FIG. 12): peribronchiolar inflammation and a lymphoid follicle
[6]
  Penh values: 2.25±0.12

## C=C(C)[C@H]1CC=C(C)CC1 [limonene, d-limonene]
[7]; adenosine challenge
  improvement in severely asthmatic patients as compared to moderately asthmatic patients: approximately one order of magnitude improvement
[7]; children 6-11 years, compared to cineole negative control
  asthmatics with asthmatic stress significantly and specifically relieved (adenosine challenge): 6/11
